What was measured:
[1] = target: Histone deacetylase (HDAC1 and HDAC2) (Homo sapiens, UniProt Q13547+Q92769); assay: Inhibition of HDAC1/2 in human K562 nuclear extraction; type: cell-free
Histone deacetylase [2] = type: cell-based, Homo sapiens; conditions: hela
[3] = target: T1, Protein deacetylase HDAC6 (Homo sapiens, UniProt Q9UBN7); assay: Inhibition of human recombinant HDAC6
T1 sequence (Q9UBN7 whole entry): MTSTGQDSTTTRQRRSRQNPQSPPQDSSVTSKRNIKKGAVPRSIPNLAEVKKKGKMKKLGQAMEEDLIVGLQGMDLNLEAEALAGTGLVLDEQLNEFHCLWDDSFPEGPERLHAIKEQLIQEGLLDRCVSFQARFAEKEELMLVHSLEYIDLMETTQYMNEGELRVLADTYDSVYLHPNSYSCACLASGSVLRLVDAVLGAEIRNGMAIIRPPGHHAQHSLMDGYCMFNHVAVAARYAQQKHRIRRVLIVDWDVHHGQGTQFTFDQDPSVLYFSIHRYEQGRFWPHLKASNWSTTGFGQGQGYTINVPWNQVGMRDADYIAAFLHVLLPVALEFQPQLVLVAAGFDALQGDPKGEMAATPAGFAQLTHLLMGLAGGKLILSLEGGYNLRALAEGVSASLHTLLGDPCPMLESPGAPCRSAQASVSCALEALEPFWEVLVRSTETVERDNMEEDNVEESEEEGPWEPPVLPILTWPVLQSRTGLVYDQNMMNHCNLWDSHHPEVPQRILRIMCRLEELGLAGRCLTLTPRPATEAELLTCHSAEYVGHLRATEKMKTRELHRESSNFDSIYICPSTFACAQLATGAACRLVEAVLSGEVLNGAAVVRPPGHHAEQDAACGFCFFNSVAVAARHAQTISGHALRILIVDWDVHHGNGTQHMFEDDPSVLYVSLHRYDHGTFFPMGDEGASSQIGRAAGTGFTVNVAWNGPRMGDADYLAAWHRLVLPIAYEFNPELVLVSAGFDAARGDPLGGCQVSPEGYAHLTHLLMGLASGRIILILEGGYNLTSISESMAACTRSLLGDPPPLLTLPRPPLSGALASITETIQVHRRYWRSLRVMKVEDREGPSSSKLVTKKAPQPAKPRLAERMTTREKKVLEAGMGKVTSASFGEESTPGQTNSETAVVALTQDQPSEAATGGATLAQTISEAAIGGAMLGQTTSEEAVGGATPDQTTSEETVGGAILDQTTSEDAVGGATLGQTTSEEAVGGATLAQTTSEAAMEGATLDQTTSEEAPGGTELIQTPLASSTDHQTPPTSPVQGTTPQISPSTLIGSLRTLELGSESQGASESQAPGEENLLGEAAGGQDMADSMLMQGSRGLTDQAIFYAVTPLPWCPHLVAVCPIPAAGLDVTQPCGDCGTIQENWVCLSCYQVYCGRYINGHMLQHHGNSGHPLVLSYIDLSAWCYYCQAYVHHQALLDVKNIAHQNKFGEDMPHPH

HBL-100 = assay: Cytotoxicity against human HBL-100 cells assessed as cell growth inhibition; type: toxicity, cell-based
HRT-18 cell line = assay: Antiproliferative activity against human HRT-18 cell line assessed as cell growth inhibition measured after 72 hrs by MTT assay; type: functional, cell-based; conditions: HRT-18, 72 h
[4] = Antiproliferative activity against human HC-04 cells assessed as cell growth inhibition measured after 72 hrs by MTT assay; type: functional, cell-based; conditions: HC04, 72 h
Histone deacetylase [5] = assay: Inhibition of HDAC (unknown origin); type: protein assay, Homo sapiens
Histone deacetylase 4 = Histone deacetylase 4 (Homo sapiens, UniProt P56524); assay: Inhibition of human recombinant HDAC4
Histone deacetylase 7 = target: T2, Histone deacetylase 7 (Homo sapiens, UniProt Q8WUI4); assay: Inhibition of human recombinant HDAC7
T2 sequence (Q8WUI4 whole entry): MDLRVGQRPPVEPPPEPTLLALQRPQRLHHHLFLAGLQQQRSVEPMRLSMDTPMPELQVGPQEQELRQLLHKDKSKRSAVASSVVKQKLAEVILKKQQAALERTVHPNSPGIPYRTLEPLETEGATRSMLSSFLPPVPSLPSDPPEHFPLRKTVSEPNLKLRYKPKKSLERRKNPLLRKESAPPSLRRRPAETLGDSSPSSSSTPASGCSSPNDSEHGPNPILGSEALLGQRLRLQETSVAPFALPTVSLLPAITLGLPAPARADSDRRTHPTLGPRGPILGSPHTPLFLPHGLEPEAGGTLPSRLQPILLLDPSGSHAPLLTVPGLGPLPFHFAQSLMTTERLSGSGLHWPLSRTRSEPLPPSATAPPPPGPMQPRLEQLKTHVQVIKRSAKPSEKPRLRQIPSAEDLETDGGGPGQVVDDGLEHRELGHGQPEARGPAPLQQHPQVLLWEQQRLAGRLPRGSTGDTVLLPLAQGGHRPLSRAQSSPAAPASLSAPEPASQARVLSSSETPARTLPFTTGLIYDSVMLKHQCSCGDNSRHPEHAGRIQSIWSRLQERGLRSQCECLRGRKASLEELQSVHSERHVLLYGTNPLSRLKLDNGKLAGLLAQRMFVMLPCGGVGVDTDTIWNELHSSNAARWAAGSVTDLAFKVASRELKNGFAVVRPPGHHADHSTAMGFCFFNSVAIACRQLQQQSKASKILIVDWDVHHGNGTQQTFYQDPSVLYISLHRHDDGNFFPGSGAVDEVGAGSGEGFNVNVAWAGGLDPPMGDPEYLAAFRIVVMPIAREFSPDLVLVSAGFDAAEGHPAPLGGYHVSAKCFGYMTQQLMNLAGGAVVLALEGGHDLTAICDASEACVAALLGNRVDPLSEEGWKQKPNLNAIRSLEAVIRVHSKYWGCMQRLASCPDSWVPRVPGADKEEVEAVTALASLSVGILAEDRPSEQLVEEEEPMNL

Histone deacetylase 2 = Histone deacetylase 2 (Homo sapiens, UniProt Q92769)
[6] = target: T3, Polyamine deacetylase HDAC10 (Homo sapiens, UniProt Q969S8); assay: Inhibition of human recombinant HDAC10
T3 sequence (Q969S8 whole entry): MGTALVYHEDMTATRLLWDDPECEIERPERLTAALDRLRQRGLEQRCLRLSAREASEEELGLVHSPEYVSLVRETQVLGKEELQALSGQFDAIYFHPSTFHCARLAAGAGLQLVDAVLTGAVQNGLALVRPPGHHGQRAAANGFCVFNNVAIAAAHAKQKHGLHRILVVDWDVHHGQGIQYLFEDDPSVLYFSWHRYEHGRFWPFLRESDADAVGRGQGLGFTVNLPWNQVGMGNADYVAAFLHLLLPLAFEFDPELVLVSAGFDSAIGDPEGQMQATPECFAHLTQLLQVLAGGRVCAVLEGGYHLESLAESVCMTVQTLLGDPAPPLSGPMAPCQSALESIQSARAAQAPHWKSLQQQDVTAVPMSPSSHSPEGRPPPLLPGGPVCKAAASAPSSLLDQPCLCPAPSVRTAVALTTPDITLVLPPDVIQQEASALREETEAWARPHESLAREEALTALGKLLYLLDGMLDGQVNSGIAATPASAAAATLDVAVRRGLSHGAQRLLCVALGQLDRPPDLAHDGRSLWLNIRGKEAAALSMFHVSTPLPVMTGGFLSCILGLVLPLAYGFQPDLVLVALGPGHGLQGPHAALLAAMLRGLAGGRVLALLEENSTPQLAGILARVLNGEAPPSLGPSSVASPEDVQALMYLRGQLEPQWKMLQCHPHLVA

Histone deacetylase 5 = Histone deacetylase 5 (Homo sapiens, UniProt Q9UQL6); assay: Inhibition of human recombinant HDAC5
Histone deacetylase 3 = Histone deacetylase 3 (Homo sapiens, UniProt O15379); assay: Inhibition of human recombinant HDAC3
Histone deacetylase 8 = target: T4, Histone deacetylase 8 (Homo sapiens, UniProt Q9BY41); assay: Inhibition of human recombinant HDAC8
T4 sequence (Q9BY41 whole entry): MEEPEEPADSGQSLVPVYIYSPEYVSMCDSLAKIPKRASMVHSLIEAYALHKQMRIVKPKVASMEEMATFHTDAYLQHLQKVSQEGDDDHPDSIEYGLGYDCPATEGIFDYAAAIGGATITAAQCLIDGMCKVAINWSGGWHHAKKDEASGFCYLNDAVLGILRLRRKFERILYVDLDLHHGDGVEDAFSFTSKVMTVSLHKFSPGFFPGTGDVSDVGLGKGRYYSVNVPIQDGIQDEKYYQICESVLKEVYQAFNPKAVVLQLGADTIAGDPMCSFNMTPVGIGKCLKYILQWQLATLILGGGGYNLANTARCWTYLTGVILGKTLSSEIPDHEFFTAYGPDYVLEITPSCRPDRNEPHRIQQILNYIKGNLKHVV

Histone deacetylase 11 = target: T5, Histone deacetylase 11 (Homo sapiens, UniProt Q96DB2); assay: Inhibition of human recombinant HDAC11
T5 sequence (Q96DB2 whole entry): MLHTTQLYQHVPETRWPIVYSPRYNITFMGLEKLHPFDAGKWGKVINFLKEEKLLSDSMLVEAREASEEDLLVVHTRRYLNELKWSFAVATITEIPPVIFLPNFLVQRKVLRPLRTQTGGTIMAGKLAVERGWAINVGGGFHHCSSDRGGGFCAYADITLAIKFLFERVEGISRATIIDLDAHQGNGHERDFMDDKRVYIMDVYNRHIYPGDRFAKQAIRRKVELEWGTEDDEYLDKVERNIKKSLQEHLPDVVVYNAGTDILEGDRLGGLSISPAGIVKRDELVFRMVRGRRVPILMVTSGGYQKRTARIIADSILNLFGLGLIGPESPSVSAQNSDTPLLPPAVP

Histone deacetylase 1 = Histone deacetylase 1 (Homo sapiens, UniProt Q13547); assay: Inhibition of human recombinant HDAC1
[7] = Dissociation constant, pKa of the compound; type: physicochemical

Histone deacetylase 3, sequence (O15379 whole entry): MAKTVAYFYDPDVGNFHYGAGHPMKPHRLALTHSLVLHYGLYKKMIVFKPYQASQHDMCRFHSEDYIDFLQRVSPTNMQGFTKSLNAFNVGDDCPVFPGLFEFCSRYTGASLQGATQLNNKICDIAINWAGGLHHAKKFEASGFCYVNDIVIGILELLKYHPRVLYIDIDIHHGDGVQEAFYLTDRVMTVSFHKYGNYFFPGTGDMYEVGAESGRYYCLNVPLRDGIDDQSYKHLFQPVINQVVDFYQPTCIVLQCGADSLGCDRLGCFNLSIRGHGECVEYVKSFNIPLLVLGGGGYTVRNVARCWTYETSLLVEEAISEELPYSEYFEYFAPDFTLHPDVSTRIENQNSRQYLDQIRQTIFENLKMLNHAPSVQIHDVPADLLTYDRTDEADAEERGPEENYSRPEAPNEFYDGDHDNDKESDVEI
Histone deacetylase 1, sequence (Q13547 whole entry): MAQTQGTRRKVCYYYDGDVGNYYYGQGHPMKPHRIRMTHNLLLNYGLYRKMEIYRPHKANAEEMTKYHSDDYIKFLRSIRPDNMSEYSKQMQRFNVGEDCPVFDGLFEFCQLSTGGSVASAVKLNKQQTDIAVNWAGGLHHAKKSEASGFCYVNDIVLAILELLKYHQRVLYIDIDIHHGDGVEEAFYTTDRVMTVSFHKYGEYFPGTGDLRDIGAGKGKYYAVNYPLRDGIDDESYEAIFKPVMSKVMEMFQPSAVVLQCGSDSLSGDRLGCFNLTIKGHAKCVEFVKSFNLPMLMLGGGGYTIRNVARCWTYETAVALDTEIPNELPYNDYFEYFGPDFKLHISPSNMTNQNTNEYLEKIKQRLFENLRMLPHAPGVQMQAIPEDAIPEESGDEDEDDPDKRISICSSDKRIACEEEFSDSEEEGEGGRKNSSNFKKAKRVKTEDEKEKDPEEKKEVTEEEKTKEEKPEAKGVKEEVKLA
Histone deacetylase 2, sequence (Q92769 whole entry): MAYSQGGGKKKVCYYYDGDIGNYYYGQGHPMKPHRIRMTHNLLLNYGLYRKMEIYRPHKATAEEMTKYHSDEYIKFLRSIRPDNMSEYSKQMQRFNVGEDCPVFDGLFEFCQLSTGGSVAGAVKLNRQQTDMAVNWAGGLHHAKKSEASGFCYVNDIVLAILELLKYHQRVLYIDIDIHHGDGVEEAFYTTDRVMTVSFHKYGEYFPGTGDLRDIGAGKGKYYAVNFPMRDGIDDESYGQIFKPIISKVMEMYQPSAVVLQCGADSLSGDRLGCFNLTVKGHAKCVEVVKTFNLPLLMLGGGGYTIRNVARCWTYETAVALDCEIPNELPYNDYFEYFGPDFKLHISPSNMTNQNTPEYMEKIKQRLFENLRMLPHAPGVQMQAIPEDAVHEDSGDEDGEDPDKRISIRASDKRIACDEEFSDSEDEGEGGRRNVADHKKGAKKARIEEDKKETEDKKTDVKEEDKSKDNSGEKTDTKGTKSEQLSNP
Histone deacetylase 4, sequence (P56524 whole entry): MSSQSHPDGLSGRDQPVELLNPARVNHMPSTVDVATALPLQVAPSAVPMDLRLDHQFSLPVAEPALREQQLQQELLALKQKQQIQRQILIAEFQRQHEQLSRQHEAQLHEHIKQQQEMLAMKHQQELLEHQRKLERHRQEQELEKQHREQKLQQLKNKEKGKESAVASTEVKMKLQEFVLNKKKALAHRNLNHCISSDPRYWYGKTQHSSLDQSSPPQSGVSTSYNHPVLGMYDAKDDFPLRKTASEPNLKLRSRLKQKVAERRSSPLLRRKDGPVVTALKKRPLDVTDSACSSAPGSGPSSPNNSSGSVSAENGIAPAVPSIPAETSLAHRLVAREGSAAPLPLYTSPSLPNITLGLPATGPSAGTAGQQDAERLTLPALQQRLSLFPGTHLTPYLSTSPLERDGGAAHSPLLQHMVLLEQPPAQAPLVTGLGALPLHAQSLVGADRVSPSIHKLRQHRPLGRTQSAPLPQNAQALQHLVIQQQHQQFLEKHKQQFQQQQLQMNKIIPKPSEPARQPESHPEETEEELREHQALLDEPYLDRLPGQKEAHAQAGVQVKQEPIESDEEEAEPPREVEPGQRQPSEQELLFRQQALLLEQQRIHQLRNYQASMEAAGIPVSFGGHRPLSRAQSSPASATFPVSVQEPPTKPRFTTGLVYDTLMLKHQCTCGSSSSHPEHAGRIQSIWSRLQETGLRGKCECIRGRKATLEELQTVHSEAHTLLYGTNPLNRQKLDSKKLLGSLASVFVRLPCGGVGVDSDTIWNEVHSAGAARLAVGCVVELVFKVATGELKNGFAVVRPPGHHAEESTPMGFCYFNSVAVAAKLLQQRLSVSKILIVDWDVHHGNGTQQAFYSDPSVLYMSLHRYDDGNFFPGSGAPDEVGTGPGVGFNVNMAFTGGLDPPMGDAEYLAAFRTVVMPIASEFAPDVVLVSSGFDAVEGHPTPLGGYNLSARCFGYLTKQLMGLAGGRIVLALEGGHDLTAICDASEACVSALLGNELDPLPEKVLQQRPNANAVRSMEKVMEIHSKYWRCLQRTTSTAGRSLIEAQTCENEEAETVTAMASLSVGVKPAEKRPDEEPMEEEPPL
Histone deacetylase 5, sequence (Q9UQL6 whole entry): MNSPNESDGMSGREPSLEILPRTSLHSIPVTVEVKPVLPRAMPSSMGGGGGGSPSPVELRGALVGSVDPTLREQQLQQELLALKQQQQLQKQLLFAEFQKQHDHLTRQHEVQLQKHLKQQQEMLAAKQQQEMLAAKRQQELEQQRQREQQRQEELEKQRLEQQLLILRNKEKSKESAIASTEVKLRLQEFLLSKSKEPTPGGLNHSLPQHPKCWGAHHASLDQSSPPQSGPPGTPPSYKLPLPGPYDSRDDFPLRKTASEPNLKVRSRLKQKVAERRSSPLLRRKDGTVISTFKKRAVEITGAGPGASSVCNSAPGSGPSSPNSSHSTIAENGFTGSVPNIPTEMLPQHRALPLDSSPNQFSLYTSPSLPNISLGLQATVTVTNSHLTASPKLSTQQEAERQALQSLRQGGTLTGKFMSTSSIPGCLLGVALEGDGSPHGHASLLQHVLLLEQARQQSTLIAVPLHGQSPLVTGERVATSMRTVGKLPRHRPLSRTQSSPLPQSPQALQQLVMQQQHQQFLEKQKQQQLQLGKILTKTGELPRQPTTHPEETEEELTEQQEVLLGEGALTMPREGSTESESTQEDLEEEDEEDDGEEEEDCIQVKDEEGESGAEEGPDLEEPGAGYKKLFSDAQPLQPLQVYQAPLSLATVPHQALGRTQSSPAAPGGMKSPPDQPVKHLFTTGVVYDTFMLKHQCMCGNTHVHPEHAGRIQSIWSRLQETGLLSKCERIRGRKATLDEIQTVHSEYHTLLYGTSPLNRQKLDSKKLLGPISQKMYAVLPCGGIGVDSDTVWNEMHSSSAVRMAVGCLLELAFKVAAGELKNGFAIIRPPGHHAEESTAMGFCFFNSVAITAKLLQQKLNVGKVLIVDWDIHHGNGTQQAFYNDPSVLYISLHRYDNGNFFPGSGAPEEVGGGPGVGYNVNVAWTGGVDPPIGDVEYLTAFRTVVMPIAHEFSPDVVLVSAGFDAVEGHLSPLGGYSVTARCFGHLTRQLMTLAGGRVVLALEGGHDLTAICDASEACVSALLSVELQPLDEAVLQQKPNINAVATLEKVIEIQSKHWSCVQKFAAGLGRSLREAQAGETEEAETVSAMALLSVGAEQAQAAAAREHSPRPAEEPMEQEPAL

CNC(=O)C(=O)CCCCCCOc1ccc(-c2ccccc2)cc1
IC50 [1]: 0.11 µM

O=C(CCCCCCNP(=O)([O-])[O-])Nc1ccccc1.[K+].[K+]
IC50 (Histone deacetylase [2]): 490 µM

COc1cccc(NC(=O)CCCCCC(=O)Nc2ccccc2)c1
IC50 (Histone deacetylase [2]): > 1000 µM

O=C(CCCCOP(=O)([O-])[O-])Nc1ccccc1.[K+].[K+]
IC50 (Histone deacetylase [2]): 2200 µM

NC(=O)C(=O)CCCCCCOc1ccc(-c2ccccc2)cc1
IC50 [1]: > 50 µM

CN(C)C(=O)C(=O)CCCCCCOc1ccc(-c2ccccc2)cc1
IC50 [1]: > 5 µM

CC(=O)O[C@H](C)C(=O)CCCCCCC(=O)Nc1ccccc1
IC50 [3]: > 300 µM
IC50 (Histone deacetylase [2]): 63.8 µM

O=C(CO)NCCCCCC(=O)Nc1ccccc1
IC50 (Histone deacetylase [2]): > 100 µM

NC(=S)NC(=O)CCCCCC(=O)Nc1ccccc1
inhibition (INH) (HBL-100): < 12%
IC50 (HRT-18 cell line): 24.1 µM
IC50 [4]: 24.1 µM

CCC(=O)CCCCCCC(=O)Nc1ccccc1
IC50 [3]: > 300 µM
IC50 (Histone deacetylase [2]): > 100 µM

C[C@@H](O)C(=O)CCCCCCC(=O)Nc1ccccc1
IC50 [3]: > 300 µM
IC50 (Histone deacetylase [2]): 8.9 µM
IC50 (Histone deacetylase [5]): > 33 µM

C[Si](O)(O)CCCCCCC(=O)Nc1ccccc1
IC50 (Histone deacetylase 4): > 100 µM
IC50 (Histone deacetylase 7): > 100 µM
IC50 [3]: 18 µM
IC50 (Histone deacetylase 2): 6 µM
IC50 [6]: 5 µM
IC50 (Histone deacetylase 5): > 100 µM
IC50 (Histone deacetylase 3): 0.6 µM
IC50 (Histone deacetylase 8): 27 µM
IC50 (Histone deacetylase 11): 57 µM

NC(=S)NC(=O)CCCCC(=O)Nc1ccccc1
inhibition (INH) (HBL-100): < 12%
IC50 (HRT-18 cell line): 30.4 µM
IC50 [4]: 30.4 µM

O=C(c1ccc(C(=O)C(F)(F)C(F)(F)F)s1)N1CCc2ccccc21
IC50 (Histone deacetylase 3): 2.9 µM
IC50 (Histone deacetylase 1): 4.2 µM

NCC(=O)NCCCCCC(=O)Nc1ccccc1
IC50 (Histone deacetylase [2]): > 100 µM

O=C(CCCCNP(=O)([O-])[O-])Nc1ccccc1.[K+].[K+]
IC50 (Histone deacetylase [2]): 360 µM

O=C(CCCCCOP(=O)([O-])[O-])Nc1ccccc1.[K+].[K+]
IC50 (Histone deacetylase [2]): 60 µM

CCN(CC)C(=S)SSCCCCCC(=O)Nc1ccccc1
IC50 [3]: 0.068 µM
IC50 (Histone deacetylase 2): 0.18 µM
IC50 [6]: 0.14 µM
IC50 (Histone deacetylase 1): 0.046 µM
IC50 (Histone deacetylase [2]): 0.7 µM

O=C(O)CNC(=O)C(=O)CCCCCCOc1ccc(-c2ccccc2)cc1
IC50 [1]: > 50 µM

O=C(CCCCCCNCCS)Nc1ccccc1
IC50 (Histone deacetylase [2]): > 100 µM

O=C(CCCCCNP(=O)([O-])[O-])Nc1ccccc1.[K+].[K+]
IC50 (Histone deacetylase [2]): 70 µM

O=C(CCCCCOP([O-])([O-])=S)Nc1ccccc1.[K+].[K+]
IC50 (Histone deacetylase [2]): 50 µM

CCNC(=O)C(=O)CCCCCCOc1ccc(-c2ccccc2)cc1
IC50 [1]: 4.9 µM

CN(C)CCNC(=O)C(=O)CCCCCCOc1ccc(-c2ccccc2)cc1
IC50 [1]: > 50 µM

O=C(CCCCCCOP(=O)([O-])[O-])Nc1ccccc1.[K+].[K+]
IC50 (Histone deacetylase [2]): 3900 µM

C[S+]([O-])CCCCCCC(=O)Nc1ccccc1 (stereo not given)
IC50 (Histone deacetylase [2]): 48 µM

O=C(CCCCCCC(=O)Nc1ccccc1)NO [VORINOSTAT]
pKa [7]: 9.4

C[C@H](O)C(=O)CCCCCCC(=O)Nc1ccccc1
IC50 [3]: > 300 µM
IC50 (Histone deacetylase [2]): 77.1 µM

From ChEMBL document CHEMBL5352506, “The Zinc-Binding Group Effect: Lessons from Non-Hydroxamic Acid Vorinostat Analogs” (J Med Chem, 2023)
